Data reported in publication PMC8464048 (Nucleic Acids Research, 2021).

Molecular target: T1, EcGlyRS-FL (heterotetrameric (αβ)2 glycyl-tRNA synthetase) (Escherichia coli, UniProt P00960+P00961)
T1 construct: gene glyQ; full-length alpha (1-303) and full-length beta (1-689, C-terminal 6xHis), co-expressed in E. coli BL21(DE3); (αβ)2 heterotetramer
T1 sequence (P00960 1-303): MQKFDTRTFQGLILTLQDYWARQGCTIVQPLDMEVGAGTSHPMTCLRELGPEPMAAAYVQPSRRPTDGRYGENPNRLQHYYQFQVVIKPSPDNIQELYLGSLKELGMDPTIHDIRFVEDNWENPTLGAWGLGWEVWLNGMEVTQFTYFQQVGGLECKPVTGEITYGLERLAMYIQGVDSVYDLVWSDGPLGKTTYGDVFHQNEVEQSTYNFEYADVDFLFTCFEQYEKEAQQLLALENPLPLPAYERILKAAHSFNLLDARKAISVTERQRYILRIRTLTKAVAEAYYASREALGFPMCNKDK
T1 sequence (P00961 1-689): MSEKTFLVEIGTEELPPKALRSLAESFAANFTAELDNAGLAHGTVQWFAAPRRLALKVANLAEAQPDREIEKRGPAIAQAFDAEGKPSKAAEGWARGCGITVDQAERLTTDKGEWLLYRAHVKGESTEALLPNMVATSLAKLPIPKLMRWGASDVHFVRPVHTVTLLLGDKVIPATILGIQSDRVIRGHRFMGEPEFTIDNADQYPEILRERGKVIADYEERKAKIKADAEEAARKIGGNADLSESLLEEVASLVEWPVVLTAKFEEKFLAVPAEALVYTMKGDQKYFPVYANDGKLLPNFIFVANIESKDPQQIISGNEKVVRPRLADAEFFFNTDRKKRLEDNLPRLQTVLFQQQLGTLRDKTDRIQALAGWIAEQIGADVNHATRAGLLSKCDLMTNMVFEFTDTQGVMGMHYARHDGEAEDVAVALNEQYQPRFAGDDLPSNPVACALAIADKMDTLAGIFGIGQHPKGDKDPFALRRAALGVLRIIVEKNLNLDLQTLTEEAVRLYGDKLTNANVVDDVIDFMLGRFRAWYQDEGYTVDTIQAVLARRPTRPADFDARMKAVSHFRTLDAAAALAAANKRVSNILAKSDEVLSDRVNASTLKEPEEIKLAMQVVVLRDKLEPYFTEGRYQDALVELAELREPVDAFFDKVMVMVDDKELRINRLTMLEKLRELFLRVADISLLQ
Experiment: isothermal titration calorimetry, one-site fit
Type: binding

## Nc1ncnc2c1ncn2[C@@H]1O[C@H](COP(=O)(O)OP(=O)(O)OP(=O)(O)O)[C@@H](O)[C@H]1O [ATP]
  Kd: ~6 µM
